Results as given in ChEMBL document CHEMBL5625164, “Design, synthesis, and evaluation of new anti-inflammatory natural products amide derivatives endowed with anti-blood cancer activity towards development of potential multifunctional agents against hematological cancers” (Eur J Med Chem, 2023).
One block for each compound: values may come before it. Activity calls are given as the source filed them. No cut-off for these calls is given here.

Assays:
[1] = Cytotoxicity against mouse RAW264.7 cells assessed as macrophage viability at 10 uM relative to control; assay type: toxicity, cell-based; settings: read-out: Activity
BV-2 [2] = assay: Anti-inflammatory activity against mouse BV-2 cells assessed as inhibition of LPS-induced NO production at 10 uM pretreated for 2 hrs followed stimulated with LPS for 22 hrs by Griess reaction assay relative to control; assay type: functional; settings: time 24 hrs
BV-2 [3] = assay: Anti-inflammatory activity against mouse BV-2 cells assessed as inhibition of LPS-induced PGE2 production pretreated for 2 hrs followed stimulated with LPS for 22 hrs at 10 uM relative to control; assay type: functional; settings: time 24 hrs
MOLT-4 [4] = assay: Anticancer activity against human MOLT-4 cells assessed as growth inhibition at 10 uM measured after 48 hrs by SRB assay relative to control; assay type: functional; settings: read-out: GI
BV-2 [5] = assay: Anti-inflammatory activity against mouse BV-2 cells assessed as inhibition of LPS-induced TNFalpha production pretreated for 2 hrs followed stimulated with LPS for 22 hrs; assay type: functional, cell-based
BV-2 [6] = assay: Anti-inflammatory activity against mouse BV-2 cells assessed as inhibition of LPS-induced TNFalpha production pretreated for 2 hrs followed stimulated with LPS for 22 hrs at 10 uM relative to control; assay type: functional; settings: time 24 hrs
BV-2 [7] = assay: Anti-inflammatory activity against mouse BV-2 cells assessed as inhibition of LPS-induced PGE2 production pretreated for 2 hrs followed stimulated with LPS for 22 hrs; assay type: functional, cell-based
RPMI-8226 [8] = assay: Anticancer activity against human RPMI-8226 cells assessed as growth inhibition at 10 uM measured after 48 hrs by SRB assay relative to control; assay type: functional; settings: read-out: GI
K562 [9] = assay: Anticancer activity against human K562 cells assessed as growth inhibition at 10 uM measured after 48 hrs by SRB assay relative to control; assay type: functional; settings: read-out: GI
SR [10] = assay: Anticancer activity against human SR cells assessed as growth inhibition at 10 uM measured after 48 hrs by SRB assay relative to control; assay type: functional; settings: read-out: GI
BV-2 [11] = assay: Anti-inflammatory activity against mouse BV-2 cells assessed as inhibition of LPS-induced NO production pretreated for 2 hrs followed stimulated with LPS for 22 hrs by Griess reaction assay; assay type: functional, cell-based
CCRF-CEM [12] = assay: Anticancer activity against human CCRF-CEM cells assessed as growth inhibition at 10 uM measured after 48 hrs by SRB assay relative to control; assay type: functional; settings: read-out: GI
HL-60 [13] = assay: Anticancer activity against human HL-60 cells assessed as growth inhibition at 10 uM measured after 48 hrs by SRB assay relative to control; assay type: functional; settings: for inhibition of growth at 10 µM: read-out: GI
RPMI-8226 [14] = assay: Anticancer activity against human RPMI-8226 cells assessed as growth inhibition measured after 48 hrs by SRB assay relative to control; assay type: functional
HL-60 [15] = assay: Anticancer activity against human HL-60 cells assessed as growth inhibition measured after 48 hrs by SRB assay relative to control; assay type: functional
MOLT-4 [16] = assay: Anticancer activity against human MOLT-4 cells assessed as growth inhibition measured after 48 hrs by SRB assay relative to control; assay type: functional
CCRF-CEM [17] = assay: Anticancer activity against human CCRF-CEM cells assessed as growth inhibition measured after 48 hrs by SRB assay relative to control; assay type: functional
K562 [18] = assay: Anticancer activity against human K562 cells assessed as growth inhibition measured after 48 hrs by SRB assay relative to control; assay type: functional
SR [19] = assay: Anticancer activity against human SR cells assessed as growth inhibition measured after 48 hrs by SRB assay relative to control; assay type: functional
[20] = Cytotoxicity against mouse RAW264.7 cells assessed as macrophage viability at 40 uM relative to control; assay type: toxicity, cell-based; settings: read-out: Activity
BV-2 [21] = assay: Anti-inflammatory activity against mouse BV-2 cells assessed as inhibition of LPS-induced NO production at 40 uM pretreated for 2 hrs followed stimulated with LPS for 22 hrs by Griess reaction assay relative to control; assay type: functional; settings: time 24 hrs

SMILES: COc1cccc(NC(=O)c2cccc(C3CC(=O)c4c(cc(OC)c(OC)c4OC)O3)c2)c1 (racemic)
viability at 10 µM [1]: 112%
inhibition at 10 µM (BV-2 [2]): 21.9%

IC50 (BV-2 [7]): 9.8 µM
IC50 (BV-2 [11]): 19.8 µM
SMILES: COc1cc2c(c(OC)c1OC)C(=O)CC(c1cccc(NC(=O)c3ccc([N+](=O)[O-])cc3)c1)O2 (racemic)
inhibition at 10 µM (BV-2 [3]): 51.6%
inhibition of growth at 10 µM (MOLT-4 [4]): 84.2%
Activity (BV-2 [5]; time 24.0 hrs): Dose-Dependent Effect
viability at 10 µM [1]: 104%
inhibition at 10 µM (BV-2 [6]): 54.6%
inhibition at 10 µM (BV-2 [2]): 35.8%
inhibition of growth at 10 µM (RPMI-8226 [8]): 66.6%
inhibition of growth at 10 µM (K562 [9]): 64.6%
inhibition of growth at 10 µM (SR [10]): 73.8%
inhibition of growth at 10 µM (CCRF-CEM [12]): 75.6%

SMILES: COc1cc2c(c(OC)c1OC)C(=O)CC(c1cccc(C(=O)Nc3ccccc3Br)c1)O2 (racemic)
viability at 10 µM [1]: 101%
inhibition at 10 µM (BV-2 [2]): 9.4%

SMILES: COc1cc2c(c(OC)c1OC)C(=O)CC(c1cccc(NC(=O)c3ccccc3)c1)O2 (racemic)
viability at 10 µM [1]: 97%
inhibition at 10 µM (BV-2 [2]): 23.5%

SMILES: COc1cccc(C(=O)Nc2cccc(C3CC(=O)c4c(cc(OC)c(OC)c4OC)O3)c2)c1 (racemic)
viability at 10 µM [1]: 98%
inhibition at 10 µM (BV-2 [2]): 32.1%

SMILES: COc1cc2c(c(OC)c1OC)C(=O)CC(c1cccc(C(=O)Nc3ccncc3)c1)O2 (racemic)
viability at 10 µM [1]: 91.3%
inhibition at 10 µM (BV-2 [2]): 16%

SMILES: COc1ccccc1NC(=O)c1cccc(C2CC(=O)c3c(cc(OC)c(OC)c3OC)O2)c1 (racemic)
viability at 10 µM [1]: 103%
inhibition at 10 µM (BV-2 [2]): 19.7%

SMILES: COc1cc2c(c(OC)c1OC)C(=O)CC(c1cccc(C(=O)Nc3cccc(Cl)c3)c1)O2 (racemic)
viability at 10 µM [1]: 93.9%
inhibition at 10 µM (BV-2 [2]): 24.6%

SMILES: COc1cc2c(c(OC)c1OC)C(=O)CC(c1cccc(C(=O)Nc3cccc(F)c3)c1)O2 (racemic)
viability at 10 µM [1]: 110%
inhibition at 10 µM (BV-2 [2]): 25.8%

SMILES: COc1cc2c(c(OC)c1OC)C(=O)CC(c1cccc(C(=O)Nc3ccc(C#N)cc3)c1)O2 (racemic)
viability at 10 µM [1]: 122%
inhibition at 10 µM (BV-2 [2]): 21.2%

SMILES: COc1ccc(NC(=O)c2cccc(C3CC(=O)c4c(cc(OC)c(OC)c4OC)O3)c2)cc1 (racemic)
viability at 10 µM [1]: 111%
inhibition at 10 µM (BV-2 [2]): 28.6%

SMILES: COc1cc2c(c(OC)c1OC)C(=O)CC(c1cccc(C(=O)Nc3ccccc3)c1)O2 (racemic)
viability at 10 µM [1]: 110%
inhibition at 10 µM (BV-2 [2]): 24.2%

IC50 (BV-2 [5]): 7.3 µM
IC50 (BV-2 [11]): 13.3 µM
SMILES: COc1cc2c(c(OC)c1OC)C(=O)CC(c1cccc(NC(=O)c3ccccc3Br)c1)O2 (racemic)
inhibition at 10 µM (BV-2 [3]): 39%
inhibition of growth at 10 µM (MOLT-4 [4]): 30.4%
viability at 10 µM [1]: 101%
inhibition at 10 µM (BV-2 [6]): 62.4%
inhibition at 10 µM (BV-2 [2]): 41.4%
inhibition of growth at 10 µM (RPMI-8226 [8]): 41.8%
inhibition of growth at 10 µM (K562 [9]): 29.8%
inhibition of growth at 10 µM (SR [10]): 31.6%
inhibition of growth at 10 µM (CCRF-CEM [12]): 26.9%

IC50 (BV-2 [5]): 16.8 µM
IC50 (BV-2 [7]): 10.3 µM
IC50 (BV-2 [11]): 13.1 µM
SMILES: COc1cc2c(c(OC)c1OC)C(=O)CC(c1cccc(C(=O)Nc3ccc(Br)cc3)c1)O2 (racemic)
inhibition at 10 µM (BV-2 [3]): 62.6%
inhibition of growth at 10 µM (MOLT-4 [4]): 101%
inhibition of growth at 10 µM (HL-60 [13]): 86.3%
viability at 10 µM [1]: 113%
inhibition at 10 µM (BV-2 [6]): 24.9%
inhibition at 10 µM (BV-2 [2]): 41.2%
inhibition of growth at 10 µM (RPMI-8226 [8]): 85.4%
inhibition of growth at 10 µM (K562 [9]): 93.8%
inhibition of growth at 10 µM (SR [10]): 77.8%
inhibition of growth at 10 µM (CCRF-CEM [12]): 90.7%

SMILES: COc1cccc(CNC(=O)c2cccc(C3CC(=O)c4c(cc(OC)c(OC)c4OC)O3)c2)c1 (racemic)
viability at 10 µM [1]: 107%
inhibition at 10 µM (BV-2 [2]): 24.7%

SMILES: COc1cc2c(c(OC)c1OC)C(=O)CC(c1cccc(NC(=O)c3ccc(C#N)cc3)c1)O2 (racemic)
viability at 10 µM [1]: 115%
inhibition at 10 µM (BV-2 [2]): 26.8%

IC50 (BV-2 [5]): 15.5 µM
IC50 (BV-2 [7]): 10.9 µM
IC50 (BV-2 [11]): 11.7 µM
SMILES: COc1cc2c(c(OC)c1OC)C(=O)CC(c1cccc(C(=O)Nc3cccc(Br)c3)c1)O2 (racemic)
inhibition at 10 µM (BV-2 [3]): 19.8%
inhibition of growth at 10 µM (MOLT-4 [4]): 51.2%
inhibition of growth at 10 µM (HL-60 [13]): 8.2%
viability at 10 µM [1]: 97.9%
inhibition at 10 µM (BV-2 [6]): 39.5%
inhibition at 10 µM (BV-2 [2]): 46.3%
inhibition of growth at 10 µM (RPMI-8226 [8]): 53.2%
inhibition of growth at 10 µM (K562 [9]): 50.2%
inhibition of growth at 10 µM (CCRF-CEM [12]): 55%

IC50 (BV-2 [5]): > 20 µM
IC50 (BV-2 [7]): 10.7 µM
IC50 (BV-2 [11]): 14.7 µM
SMILES: COc1cc2c(c(OC)c1OC)C(=O)CC(c1cccc(C(=O)Nc3cccc([N+](=O)[O-])c3)c1)O2 (racemic)
inhibition at 10 µM (BV-2 [3]): 31.4%
inhibition of growth at 10 µM (MOLT-4 [4]): 77.2%
inhibition of growth at 10 µM (HL-60 [13]): 49.4%
viability at 10 µM [1]: 111%
inhibition at 10 µM (BV-2 [2]): 42.7%
inhibition of growth at 10 µM (RPMI-8226 [8]): 82.7%
inhibition of growth at 10 µM (K562 [9]): 63.5%
inhibition of growth at 10 µM (SR [10]): 66.2%
inhibition of growth at 10 µM (CCRF-CEM [12]): 89.7%

SMILES: COc1ccc(C(=O)Nc2cccc(C3CC(=O)c4c(cc(OC)c(OC)c4OC)O3)c2)cc1 (racemic)
viability at 10 µM [1]: 102%
inhibition at 10 µM (BV-2 [2]): 15.2%

SMILES: COc1cc2c(c(OC)c1OC)C(=O)CC(c1cccc(NC(=O)c3cccc(Cl)c3)c1)O2 (racemic)
viability at 10 µM [1]: 100%
inhibition at 10 µM (BV-2 [2]): 32.3%

SMILES: COc1cc2c(c(OC)c1OC)C(=O)CC(c1cccc(NC(=O)c3cccc(Br)c3)c1)O2 (racemic)
viability at 10 µM [1]: 105%
inhibition at 10 µM (BV-2 [2]): 14.2%

SMILES: COc1cc2c(c(OC)c1OC)C(=O)CC(c1cccc(C(=O)Nc3cccnc3)c1)O2 (racemic)
viability at 10 µM [1]: 109%
inhibition at 10 µM (BV-2 [2]): 10.5%

SMILES: COc1ccccc1C(=O)Nc1cccc(C2CC(=O)c3c(cc(OC)c(OC)c3OC)O2)c1 (racemic)
viability at 10 µM [1]: 103%
inhibition at 10 µM (BV-2 [2]): 14.3%

GI50 (RPMI-8226 [14]): 6.17 µM
GI50 (HL-60 [15]): 13.5 µM
GI50 (MOLT-4 [16]): 5.13 µM
GI50 (CCRF-CEM [17]): 17 µM
GI50 (K562 [18]): 0.05 µM
SMILES: Cc1ccc(NC(=O)c2ccc(CN3CCN(C)CC3)cc2)cc1Nc1nccc(-c2cccnc2)n1 [IMATINIB]
inhibition of growth at 10 µM (MOLT-4 [4]): 18%
growth inhibition (GI) (HL-60 [13]): inactive
inhibition of growth at 10 µM (RPMI-8226 [8]): 12.6%
inhibition of growth at 10 µM (SR [10]): 14.6%
GI50 (SR [19]): 7.24 µM
inhibition of growth at 10 µM (CCRF-CEM [12]): 6.6%

SMILES: CC(=N)NCCCC[C@H](N)C(=O)O [L-NIL]
viability at 40 µM [20]: 106%
inhibition at 40 µM (BV-2 [21]): 54.3%
